PMC5844530, “Fosmetpantotenate (RE-024), a phosphopantothenate replacement therapy for pantothenate kinase-associated neurodegeneration: Mechanism of action and efficacy in nonclinical models” (PLoS ONE, 2018)
Several values for one entry are separate records, joined by “and”; a condition that tells them apart may be missing. Equal entries are not always repeated.

Experiments:
[1] = Pharmacokinetics in whole blood, CD-1 mice; conditions: male, CD-1, mouse, in vivo, blood
[2] = Pharmacokinetics in whole blood, Sprague-Dawley rats; conditions: male Sprague-Dawley rats, blood, BQL <1.26 nM
Procedure: The whole blood samples (0.5 mL) were collected into syringes that were prefilled with 2.5 mL of ice-cold 0.1% formic acid in acetonitrile. The volume ratio of the whole blood to 0.1% formic acid in acetonitrile was 1/5 (v/v). Samples were frozen (-70°C) until analyzed by LC-MS/MS.
Standard curves and quality control (QC) samples were prepared fresh on the day of analysis by serial dilution of the standard mixture in quenched whole blood (1 part of blood to 5 parts of 0.1% formic acid in acetonitrile) and centrifuged. […] The frozen study samples were thawed in an ice/water bath and centrifuged. Supernatant (50 μL) from standards, QC samples, and study samples was transferred to a 96-well plate and dried completely under nitrogen. The dried residues were reconstituted with 100 μL of 0.1% formic acid in water containing internal standard (5 ng/mL of ^15N/^13C3-RE-024-02) and analyzed by LC-MS/MS.
LC-MS/MS analysis for blood pharmacokinetic samples: Samples were analyzed using an Agilent 1100 binary pump (Agilent Technologies, Santa Clara, CA, USA), connected to an AB Sciex API 6500 mass spectrometer (SCIEX, Framingham, MA, USA). An electrospray ionization source was used, scanning in the positive mode. […] The chromatography column was a Varian Metasil AQ 120–5 C18 column, 5 μm, 50 x 2.00 mm (Part No. A0530050X020) at ambient temperature, with a 0.5 mL/min flow rate and a 20 μL injection volume. Mobile phase (A) consisted of 0.1% formic acid in water; while mobile phase (B) consisted of 0.1% formic acid in acetonitrile:water (9:1, v/v).
Quantitation of in vivo samples: Peak areas were integrated using Analyst software (AB Sciex, Concord, Ontario, Canada). […] Calibration standards (at a minimum 7 per curve) were fit by linear regression with (1/x^2) weighting. QC samples were used (triplicate) at 3 concentrations for all tandem mass spectrometry (MS/MS) runs.
Pharmacokinetic calculations: PK analysis was performed using Phoenix WinNonlin®, Build 6.3.0.395 (Certara, Princeton, NJ, USA) using a non-compartmental model (PO dose = model 200 for extravascular dosing). […] Post-dose concentrations below the limit of quantitation (BLQ) were omitted from calculation.

[3] = Metabolic stability in human liver microsomes; type: in vitro ADME; conditions: pooled liver microsomes
Procedure: Metabolic stability in blood and liver microsomes: Fosmetpantotenate or its individual diastereomers (5 μM, n = 2, 37°C) were incubated in mouse, rat, cynomolgus monkey, and human whole blood. Samples (50 μL) were taken at 0, 5, 15, 30, and 60 min. Incubations of fosmetpantotenate or its individual diastereomers (1 μM, n = 2, 37°C) in pooled liver microsomes (0.25 mg protein/mL in 0.1 M phosphate buffer pH 7.4) were initiated with the addition of nicotinamide adenine dinucleotide phosphate (NADPH; 1 mM). Aliquots (100 μL) were obtained at 0, 5, 10, 20, and 40 min and added to 150 μL of 0.1% formic acid in acetonitrile-containing carbamazepine (0.5 μM) as an analytical internal standard, centrifuged, and the supernatants analyzed by LC-MS/MS.
Bioanalysis for determinations of analyte stability: Samples were analyzed using a benchtop tandem quadrupole detector (TQD) mass spectrometer (Waters Ltd, Centennial Park, Hertfordshire). […] Suitable retention and peak shape with separation of the 2 diastereomers were obtained. The chromatography column was a Phenomenex-Kinetex XB C18 (2.10 x 50 mm; 2.6 μm), with a 0.7 mL/min flow rate and a 2 μL injection volume. […]
The percent of compound remaining was determined from the MRM area response in each sample relative to that in the T = 0 samples (normalized for internal standard). […]

[4] = 300 mg/kg, Mean Conc., fosmetpantotenate 300 mg/kg PO
[5] = 700 mg/kg, Fosmetpantotenate Conc., male CD-1 mice, fosmetpantotenate 700 mg/kg oral, individual animals, BQL <1.02 nM
[6] = 700 mg/kg, Fosmetpantotenate Mean Conc., male CD-1 mice, fosmetpantotenate 700 mg/kg oral, mean, BQL <1.02 nM

COC(=O)CCNC(=O)[C@H](O)C(C)(C)COP(=O)(N[C@@H](C)C(=O)OC)Oc1ccccc1 (mixture of isomers) [Fosmetpantotenate] showed a concentration at 4 h ([1]; 300 mg/kg, Conc., fosmetpantotenate 300 mg/kg PO, individual animals) of 1.03 nM, a concentration at 0.033 h [1, 4] of 30.2 nM and a concentration at 0.083 h [1, 4] of 14.4 nM. It also gave a concentration at 0.167 h [1, 4] of 2.3 nM, a concentration at 0.333 h [1, 4] of 1.22 nM and a concentration at 0.5 h [1, 4] of 1.36 nM. It also gave a concentration at 1 h [1, 4] of 1.14 nM, a concentration at 4 h [1, 4] of 1.03 nM and a concentration at 0.333 h [1, 5] of 24.4 nM. The concentration at 4 h [1, 5] was 1.14 nM, the concentration at 0.033 h [1, 6] was 135 nM and the concentration at 0.083 h [1, 6] was 16.2 nM. It also gave a concentration at 0.167 h [1, 6] of 307 nM, a concentration at 0.333 h [1, 6] of 23.6 nM and a concentration at 0.5 h [1, 6] of 78.7 nM. For the same compound, the concentration at 1 h [1, 6] was 51.6 nM, the concentration at 2 h ([1]; 700 mg/kg, Fosmetpantotenate Mean Conc., male CD-1 mice, fosmetpantotenate 700 mg/kg oral, 2 hr, mean, BQL <1.02 nM) was 5.11 nM and the concentration at 4 h [1, 6] was 1.14 nM. The “Fosmetpantotenate Conc.” value ([2]; fosmetpantotenate 100 mg/kg oral, 0.033 hr, individual animals) was “BQL”, the “Fosmetpantotenate Mean Conc.” value ([2]; fosmetpantotenate 100 mg/kg oral, 0.033 hr, mean) was “BQL” and the “Fosmetpantotenate Conc.” value ([2]; fosmetpantotenate 100 mg/kg oral, 0.083 hr, individual animals) was “BQL”. The “Fosmetpantotenate Mean Conc.” value ([2]; fosmetpantotenate 100 mg/kg oral, 0.083 hr, mean) was “BQL”, the “Fosmetpantotenate Conc.” value ([2]; fosmetpantotenate 100 mg/kg oral, 0.167 hr, individual animals) was “BQL” and the “Fosmetpantotenate Mean Conc.” value ([2]; fosmetpantotenate 100 mg/kg oral, 0.167 hr, mean) was “BQL”. For the same compound, the “Fosmetpantotenate Conc.” value ([2]; fosmetpantotenate 100 mg/kg oral, 0.33 hr, individual animals) was “BQL”, the “Fosmetpantotenate Mean Conc.” value ([2]; fosmetpantotenate 100 mg/kg oral, 0.33 hr, mean) was “BQL” and the “Fosmetpantotenate Conc.” value ([2]; fosmetpantotenate 100 mg/kg oral, 0.5 hr, individual animals) was “BQL”. For the same compound, the “Fosmetpantotenate Conc.” value ([2]; fosmetpantotenate 100 mg/kg oral, 1 hr, individual animals) was “BQL”, the “Fosmetpantotenate Mean Conc.” value ([2]; fosmetpantotenate 100 mg/kg oral, 1 hr, mean) was “BQL” and the “Fosmetpantotenate Conc.” value ([2]; fosmetpantotenate 100 mg/kg oral, 2 hr, individual animals) was “BQL”. For the same compound, the “Fosmetpantotenate Mean Conc.” value ([2]; fosmetpantotenate 100 mg/kg oral, 2 hr, mean) was “BQL”, the “Fosmetpantotenate Conc.” value ([2]; fosmetpantotenate 100 mg/kg oral, 4 hr, individual animals) was “BQL” and the “Fosmetpantotenate Conc.” value ([2]; fosmetpantotenate 100 mg/kg oral, 8 hr, individual animals) was “BQL”. For the same compound, the “Fosmetpantotenate Mean Conc.” value ([2]; fosmetpantotenate 100 mg/kg oral, 8 hr, mean) was “BQL”, the “Fosmetpantotenate Conc.” value ([2]; fosmetpantotenate 300 mg/kg oral, 0.033 hr, individual animals) was 4.15 nM and BQL and the “Fosmetpantotenate Conc.” value ([2]; fosmetpantotenate 300 mg/kg oral, 0.083 hr, individual animals) was “BQL”. For the same compound, the “Fosmetpantotenate Mean Conc.” value ([2]; fosmetpantotenate 300 mg/kg oral, 0.083 hr, mean) was “BQL”, the “Fosmetpantotenate Conc.” value ([2]; fosmetpantotenate 300 mg/kg oral, 0.167 hr, individual animals) was 8.83 nM and 22.89 nM and 22.51 nM and the “Fosmetpantotenate Conc.” value ([2]; fosmetpantotenate 300 mg/kg oral, 0.33 hr, individual animals) was “BQL and 64.88 nM and 7.67 nM”. For the same compound, the “Fosmetpantotenate Conc.” value ([2]; fosmetpantotenate 300 mg/kg oral, 0.5 hr, individual animals) was 2.28 nM and BQL and 577.94 nM, the “Fosmetpantotenate Conc.” value ([2]; fosmetpantotenate 300 mg/kg oral, 1 hr, individual animals) was “BQL” and the “Fosmetpantotenate Conc.” value ([2]; fosmetpantotenate 300 mg/kg oral, 2 hr, individual animals) was “BQL”. The “Fosmetpantotenate Conc.” value ([2]; fosmetpantotenate 300 mg/kg oral, 4 hr, individual animals) was “BQL”, the “Fosmetpantotenate Conc.” value ([2]; fosmetpantotenate 300 mg/kg oral, 8 hr, individual animals) was “BQL” and the “Fosmetpantotenate Mean Conc.” value ([2]; fosmetpantotenate 300 mg/kg oral, 8 hr, mean) was “BQL”. The “Fosmetpantotenate Conc.” value ([2]; fosmetpantotenate 700 mg/kg oral, 0.033 hr, individual animals) was 2149.90(a) nM and BQL and 114.07 nM, the “Fosmetpantotenate Conc.” value ([2]; fosmetpantotenate 700 mg/kg oral, 0.083 hr, individual animals) was 518.51 nM and BQL and 1.62 nM and the “Fosmetpantotenate Conc.” value ([2]; fosmetpantotenate 700 mg/kg oral, 0.167 hr, individual animals) was 28.96 nM and 23269.54(a) nM and 247.87 nM. For the same compound, the “Fosmetpantotenate Conc.” value ([2]; fosmetpantotenate 700 mg/kg oral, 0.33 hr, individual animals) was 2541.94 nM and 1277.3 nM and 54 nM, the “Fosmetpantotenate Conc.” value ([2]; fosmetpantotenate 700 mg/kg oral, 0.5 hr, individual animals) was 509.65 nM and 72.84 nM and 84.61 nM and the “Fosmetpantotenate Conc.” value ([2]; fosmetpantotenate 700 mg/kg oral, 1 hr, individual animals) was 73.35 nM and 63.86 nM and 214.99 nM. For the same compound, the “Fosmetpantotenate Conc.” value ([2]; fosmetpantotenate 700 mg/kg oral, 2 hr, individual animals) was “BQL and 1035.75 nM”, the “Fosmetpantotenate Conc.” value ([2]; fosmetpantotenate 700 mg/kg oral, 4 hr, individual animals) was 419.86 nM and BQL and 32.12 nM and the “Fosmetpantotenate Conc.” value ([2]; fosmetpantotenate 700 mg/kg oral, 8 hr, individual animals) was “BQL”. For the same compound, the “Fosmetpantotenate Mean Conc.” value ([2]; fosmetpantotenate 700 mg/kg oral, 8 hr, mean) was “BQL”, the concentration at 0.5 h ([2]; male, Sprague-Dawley, rat, in vivo, 100 mg/kg, Fosmetpantotenate Conc., fosmetpantotenate 100 mg/kg oral, 0.5 hr, individual animals) was 3.31 nM and the concentration at 4 h ([2]; male, Sprague-Dawley, rat, in vivo, 100 mg/kg, Fosmetpantotenate Conc., fosmetpantotenate 100 mg/kg oral, 4 hr, individual animals) was 2.04 nM. It also gave a concentration at 0.5 h ([2]; male, Sprague-Dawley, rat, in vivo, 100 mg/kg, Fosmetpantotenate Mean Conc., fosmetpantotenate 100 mg/kg oral, 0.5 hr, mean) of 3.31 nM, a concentration at 4 h ([2]; male, Sprague-Dawley, rat, in vivo, 100 mg/kg, Fosmetpantotenate Mean Conc., fosmetpantotenate 100 mg/kg oral, 4 hr, mean) of 2.04 nM and a concentration at 0.033 h ([2]; male, Sprague-Dawley, rat, in vivo, 300 mg/kg, Fosmetpantotenate Conc., fosmetpantotenate 300 mg/kg oral, 0.033 hr, individual animals) of 3.9 nM. For the same compound, the concentration at 1 h ([2]; male, Sprague-Dawley, rat, in vivo, 300 mg/kg, Fosmetpantotenate Conc., fosmetpantotenate 300 mg/kg oral, 1 hr, individual animals) was 6.98 nM, the concentration at 2 h ([2]; male, Sprague-Dawley, rat, in vivo, 300 mg/kg, Fosmetpantotenate Conc., fosmetpantotenate 300 mg/kg oral, 2 hr, individual animals) was 3.41 nM and the concentration at 4 h ([2]; male, Sprague-Dawley, rat, in vivo, 300 mg/kg, Fosmetpantotenate Conc., fosmetpantotenate 300 mg/kg oral, 4 hr, individual animals) was 3.69 nM. The concentration at 0.033 h ([2]; male, Sprague-Dawley, rat, in vivo, 300 mg/kg, Fosmetpantotenate Mean Conc., fosmetpantotenate 300 mg/kg oral, 0.033 hr, mean) was 4.03 nM, the concentration at 0.167 h ([2]; male, Sprague-Dawley, rat, in vivo, 300 mg/kg, Fosmetpantotenate Mean Conc., fosmetpantotenate 300 mg/kg oral, 0.167 hr, mean) was 18.1 nM and the concentration at 0.33 h ([2]; male, Sprague-Dawley, rat, in vivo, 300 mg/kg, Fosmetpantotenate Mean Conc., fosmetpantotenate 300 mg/kg oral, 0.33 hr, mean) was 36.3 nM. For the same compound, the concentration at 0.5 h ([2]; male, Sprague-Dawley, rat, in vivo, 300 mg/kg, Fosmetpantotenate Mean Conc., fosmetpantotenate 300 mg/kg oral, 0.5 hr, mean) was 290 nM, the concentration at 1 h ([2]; male, Sprague-Dawley, rat, in vivo, 300 mg/kg, Fosmetpantotenate Mean Conc., fosmetpantotenate 300 mg/kg oral, 1 hr, mean) was 6.98 nM and the concentration at 2 h ([2]; male, Sprague-Dawley, rat, in vivo, 300 mg/kg, Fosmetpantotenate Mean Conc., fosmetpantotenate 300 mg/kg oral, 2 hr, mean) was 3.41 nM. The concentration at 4 h ([2]; male, Sprague-Dawley, rat, in vivo, 300 mg/kg, Fosmetpantotenate Mean Conc., fosmetpantotenate 300 mg/kg oral, 4 hr, mean) was 3.69 nM, the concentration at 2 hr ([2]; male, Sprague-Dawley, rat, in vivo, 700 mg/kg, Fosmetpantotenate Conc., fosmetpantotenate 700 mg/kg oral, 2 hr, individual animals) was 663 nM and the concentration at 0.033 h ([2]; male, Sprague-Dawley, rat, in vivo, 700 mg/kg, Fosmetpantotenate Mean Conc., fosmetpantotenate 700 mg/kg oral, 0.033 hr, mean) was 114 nM. The concentration at 0.083 h ([2]; male, Sprague-Dawley, rat, in vivo, 700 mg/kg, Fosmetpantotenate Mean Conc., fosmetpantotenate 700 mg/kg oral, 0.083 hr, mean) was 260 nM, the concentration at 0.167 hr ([2]; male, Sprague-Dawley, rat, in vivo, 700 mg/kg, Fosmetpantotenate Mean Conc., fosmetpantotenate 700 mg/kg oral, 0.167 hr, mean) was 138 nM and the concentration at 0.33 hr ([2]; male, Sprague-Dawley, rat, in vivo, 700 mg/kg, Fosmetpantotenate Mean Conc., fosmetpantotenate 700 mg/kg oral, 0.33 hr, mean) was 1290 nM. For the same compound, the concentration at 0.5 hr ([2]; male, Sprague-Dawley, rat, in vivo, 700 mg/kg, Fosmetpantotenate Mean Conc., fosmetpantotenate 700 mg/kg oral, 0.5 hr, mean) was 222 nM, the concentration at 1 hr ([2]; male, Sprague-Dawley, rat, in vivo, 700 mg/kg, Fosmetpantotenate Mean Conc., fosmetpantotenate 700 mg/kg oral, 1 hr, mean) was 117 nM and the concentration at 2 hr ([2]; male, Sprague-Dawley, rat, in vivo, 700 mg/kg, Fosmetpantotenate Mean Conc., fosmetpantotenate 700 mg/kg oral, 2 hr, mean) was 849 nM. It also gave a concentration at 4 h ([2]; male, Sprague-Dawley, rat, in vivo, 700 mg/kg, Fosmetpantotenate Mean Conc., fosmetpantotenate 700 mg/kg oral, 4 hr, mean) of 226 nM, a half-life at 1 μM ([3]; pH 7.4, 1 μM, NADPH) of 21 min and a microsomal CLint at 1 μM ([3]; pH 7.4, read-out: intrinsic clearance) of 134 µL/min/mg.
